US10906888B2, “Pyrimidine carboxamides as inhibitors of Vanin-1 enzyme” (Pfizer Inc., priority 2016, dated 2021)

These compounds were tested against human vanin-1 (Homo sapiens (Human), UniProt O95497) (assay: Human Vanin-1 Enzyme Assay 1). Conditions: 25 pM human vanin-1, 50 uM pantetheine 7-amino-4-trifluoromethylcoumarin substrate.
Format: biochemical
Procedure: Human Vanin-1Enzyme Assay 1.
The in vitro assay measures enzymatic cleavage of the fluorescently-labeled vanin substrate, pantetheine 7-amino-4-trifluoromethylcoumarin, by human vanin-1.
The vanin-1 protein was prepared in-house from a construct expressing the extracellular domain of human vanin-1 (GenBank ID NM_004666) preceded N-terminally by the honey bee melittin signal peptide, a GSG linker sequence, a His6× tag and a FLAG tag. The secreted, soluble enzyme was purified from the conditioned medium from a CHO cell line stably expressing the resulting protein. Enzyme purification was performed through sequential Ni NTA and size-exclusion chromatography steps.
Intermediate concentrations were prepared by diluting in DMSO in a four-fold series for a total of 11 data points.
To begin the assay 100 nL was transferred from the compound plate to the assay plate. Next, 15 μL of the vanin-1 working solution were transferred to the assay plate. The inhibitor and enzyme were incubated at room temperature for 30 minutes. The enzyme reaction was then initiated by the addition of 5 μL of 200 μM pantetheine 7-amino-4-trifluoromethylcoumarin prepared in assay buffer. […] The final concentration of DMSO was 0.5%.

human vanin-1, sequence (O95497 22-491): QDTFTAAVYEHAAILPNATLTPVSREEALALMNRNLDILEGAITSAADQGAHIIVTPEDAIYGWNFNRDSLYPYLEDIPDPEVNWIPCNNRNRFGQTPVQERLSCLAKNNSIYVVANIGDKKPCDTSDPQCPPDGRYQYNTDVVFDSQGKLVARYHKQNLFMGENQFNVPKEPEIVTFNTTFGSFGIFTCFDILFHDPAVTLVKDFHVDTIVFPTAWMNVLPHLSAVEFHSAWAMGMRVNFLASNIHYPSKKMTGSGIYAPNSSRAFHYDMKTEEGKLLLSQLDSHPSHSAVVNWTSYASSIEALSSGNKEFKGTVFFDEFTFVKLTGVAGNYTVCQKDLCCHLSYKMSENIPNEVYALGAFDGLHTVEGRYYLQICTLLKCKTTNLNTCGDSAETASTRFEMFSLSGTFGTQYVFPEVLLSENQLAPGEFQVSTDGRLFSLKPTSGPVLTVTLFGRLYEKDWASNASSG

Structure (SMILES) | IC50
O=C(c1cnc(NC2(c3cncnc3)CC2)nc1)N1C[C@@H](CO)[C@H](C(F)(F)F)C1 [Example 53] | 0.0122 µM
O=C(c1cnc(NC2(c3cncnc3)CC2)nc1)N1C[C@H](O)C[C@H](C2CC2)C1 [Example 88] | 0.0287 µM
O=C(c1cnc(NCc2cccnc2)nc1)N1CCn2ccnc2C1 [Example 8] | 0.0371 µM
COC1CCOC2(CCN(C(=O)c3cnc(NC4(c5cncnc5)CC4)nc3)CC2)C1 (centres unmarked) [Example 91] | 0.316 µM
NC(=O)[C@@H]1CCCN1C(=O)c1cnc(NCc2cccnc2)nc1 [Example 32] | 20 µM
O=C(c1cnc(NC2(c3cncnc3)CC2)nc1)N1CCCOCC1 [Example 42] | 0.0351 µM
CCC1(CO)CCN(C(=O)c2cnc(NC3(c4cncnc4)CC3)nc2)CC1 [Example 95] | 0.0301 µM
O=C(c1cnc(NC2(c3cncnc3)CC2)nc1)N1CCC(c2cc[nH]n2)C1 (centres unmarked) [Example 43] | 0.00135 µM
C[C@@H]1CN(C(=O)c2cnc(NC3(c4cncnc4)CC3)nc2)[C@H](C)CO1 [Example 58] | 0.116 µM
Cc1ccc(C2(Nc3ncc(C(=O)N4CC5(CCOCC5)C4)cn3)CC2)cn1 [Example 176] | 0.000911 µM
Cc1ccc(C(C)Nc2ncc(C(=O)N3CC4(CCOCC4)C3)cn2)cn1 (centres unmarked) [Example 163] | 0.00177 µM
O=C(c1cnc(NC2(c3cncnc3)CC2)nc1)N1C[C@@H](F)C[C@@H]1CO [Example 48] | 20 µM
N#CCC1CCCCN1C(=O)c1cnc(NCc2cccnc2)nc1 (centres unmarked) [Example 14] | 0.156 µM
CCC1COC(=O)N1C1CCN(C(=O)c2cnc(NC3(c4cncnc4)CC3)nc2)CC1 (centres unmarked) [Example 36] | 1 µM
O=C(c1cnc(NC2(c3cncnc3)CC2)nc1)N1CCN2C[C@@H](F)C[C@H]2C1 [Example 35] | 0.00542 µM
O=C(c1cnc(NC2(c3cncnc3)CC2)nc1)N1CCC2(CCO2)CC1 [Example 34] | 0.0472 µM
COCC1COCCN(C(=O)c2cnc(NC3(c4cncnc4)CC3)nc2)C1 (centres unmarked) [Example 85] | 0.167 µM
C[C@H]1CCCN1C(=O)c1cnc(NC2(c3cncnc3)CC2)nc1 [Example 47] | 0.0296 µM

The remaining lines, values ahead:

IC50 | Structure (SMILES)
0.00245 µM | CCOC1CCCN(C(=O)c2cnc(NC3(c4cncnc4)CC3)nc2)C1 (centres unmarked) [Example 104]
0.00429 µM | C[C@H](Nc1ncc(C(=O)N2CCC3(CCOCC3)C2)cn1)c1ccnnc1 [Example 153]
0.249 µM | O=C(c1cnc(NC2(c3cncnc3)CC2)nc1)N1CCOCC1 [Example 109]
0.000551 µM | O=C(c1cnc(NC2(c3ccccn3)CC2)nc1)N1CCC2(CCOCC2)C1 [Example 177]
0.00395 µM | C[C@H](Nc1ncc(C(=O)N2CCN3C[C@@H](F)C[C@H]3C2)cn1)c1cnccn1 [Example 121]
0.838 µM | C[C@@H](Nc1ncc(C(=O)N2CCC3(CCOCC3)C2)cn1)c1ccncn1 [Example 156]
0.000955 µM | C[C@H](Nc1ncc(C(=O)N2CC3(CCOCC3)C2)cn1)c1cncnc1 [Example 151]
0.00771 µM | O=C(c1cnc(NCc2cncnc2)nc1)N1CCC2(CCOCC2)C1 [Example 185]
0.00733 µM | Cc1ncc(CNc2ncc(C(=O)N3CC4(CCOCC4)C3)cn2)cn1 [Example 171]
2.33 µM | Cc1nc(NC2(c3cncnc3)CC2)ncc1C(=O)N1CCC2(CCOCC2)C1 [Example 136]
0.384 µM | O=C(c1cnc(NCc2cnccn2)nc1)N1CCN2CCC[C@@H]2C1 [Example 128]
0.0205 µM | CS(=O)(=O)C1CCCN(C(=O)c2cnc(NC3(c4cncnc4)CC3)nc2)C1 (centres unmarked) [Example 198]
0.000743 µM | CC(C)(Nc1ncc(C(=O)N2CC3(CCOCC3)C2)cn1)c1cncnc1 [Example 144]
0.587 µM | C[C@H](Nc1ncc(C(=O)N2CC3CN(C)CC3C2)cn1)c1cnccn1 (some centres unmarked) [Example 127]
0.00218 µM | O=C(c1cnc(NC2(c3ncccn3)CC2)nc1)N1CCC2(CCOCC2)C1 [Example 178]
1.37 µM | CN1CC2(CCN(C(=O)c3cnc(NCc4cnccn4)nc3)C2)C1 [Example 119]
0.000745 µM | CC(Nc1ncc(C(=O)N2CCC3(CCOCC3)C2)cn1)c1cncnc1 (centres unmarked) [Example 183]
